Molecules are shown by their SMILES. pIC50: −log10 of the molar value.

In general, pIC50 refers to the IC50 on a negative log10 scale, so that one unit is a factor of ten.

Chain of Granzyme B (human lymphocytes) (P10144 21-247): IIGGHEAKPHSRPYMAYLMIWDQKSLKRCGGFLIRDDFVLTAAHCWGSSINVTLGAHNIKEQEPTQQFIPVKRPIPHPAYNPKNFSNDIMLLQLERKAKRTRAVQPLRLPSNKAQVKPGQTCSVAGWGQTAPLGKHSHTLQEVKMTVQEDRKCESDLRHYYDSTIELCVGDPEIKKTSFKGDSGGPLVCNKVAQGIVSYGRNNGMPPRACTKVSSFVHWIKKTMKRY

The assay addresses Granzyme B (human lymphocytes) (Homo sapiens (Human), UniProt P10144). The assay is described as follows: human Granzyme B biochemical assay. Conditions: Granzyme B (human lymphocytes) 5 nM, substrate Ac-IETD-AFC 200 μM, Cpd incubation with enzyme 30 mins, 22° C., read time 60 mins; read-out: IC50. The text has this: The compounds of Formula I-VIII described above can be tested using the human Granzyme B biochemical assay provided below.
Materials: • 1. Granzyme B (human lymphocytes) Enzyme: Enzo Lifesciences, Cat #ALX-200-602-0010 • 2. Substrate (Ac-IETD-AFC): Enzo Lifesciences, Cat #ALX-260-110-M010 • 3. Standard inhibitor (Compound 20-Isomer3): Synthesized internally in TCG • 4. Dimethyl sulfoxide (DMSO): Sigma-Aldrich, Cat #41639 • 5. HEPES: Gibco, Cat #15630-080 • 6. Calcium chloride: Sigma-Aldrich, Cat #C-5080 • 7. Distilled water: Gibco, Cat #15230-162 • 8. Bovine serum albumin (BSA): Sigma-Aldrich, Cat #A3059 • 9. Black, clear bottom PDL plate (384 wells): Greiner bio-one, Cat #781946 • 10. Polypropylene plate (384 wells): Corning, Cat #3657 Assay Buffer Composition:
Compound Preparation: • 1. DMSO is added to the respective compound vial to make 10 mM Compound stock solution, which is stored at −20° C. • 2. 10 mM Compound stock solution is thawed and 1 mM DMSO stock solution is prepared by adding 45 μl of DMSO to 5 μl of 10 mM compound stock solution. • 3. 1 mM DMSO stock solution is serially diluted (3.16 fold) by adding 10 μl of 1 mM DMSO stock to 21.6 μl of DMSO and mixed well. 10 μl of the resulting solution is then added to 21.6 μl of DMSO and mixed well. This process is continued to create 11 dilution points for the assay standard inhibitor and 8 dilution points for test compounds in 384 well polypropylene plate. • 4. 2 μl of each dilution are dispensed in assay ready plate. • 5. Each well is then diluted 25 fold by adding 48 μl of assay buffer to 2 μl of compound in assay ready plate to make Compound working stock. Enzyme Preparation: • 1. Supplied Granzyme B (human lymphocytes) enzyme is reconstituted to 1 mg/ml (about 31.25 μM) and 1 μl aliquots are kept in −80° C. • 2. 1 μl aliquot is diluted to 625 nM by adding 49 μl of assay buffer containing 0.1% BSA and gently mixed. • 3. 10 nM enzyme working stock is prepared by adding assay buffer containing 0.1% BSA. Substrate Preparation: • 1. Supplied substrate (Ac-IETD-AFC) is reconstituted by adding DMSO to make 10 mM stock, aliquoted and stored in −80° C. • 2. 4 mM substrate mid stock is prepared by adding DMSO. • 3. Substrate working stock i.e. 800 μM is prepared by adding assay buffer. Assay Protocol: • 1. 10 μl of serially diluted Compound working stock (start dose 40 μM) is added from assay ready plate to assay plate according to the plate map. • 2. Positive control (40 μM of standard inhibitor) and negative control (4% DMSO buffer) are added to the respective wells. • 3. 20 μl of Enzyme working stock is added to assay plate and gently mixed. • 4. The plate is incubated at 22° C. for 30 mins and spun at 130 g for 1 minute. • 5. After incubation, 10 μl of Substrate working stock is added to respective wells and mixed (Assay plate is maintained in dark after substrate addition). • 6. The plate is incubated at 22° C. for 60 mins and spun at 130 g for 1 minute. • 7. Fluorescence read (RFU) (Ex: 400 nm/Em: 505 nm) is taken after 60 mins in EnVision Multimode plate reader. Final Assay Concentration:
Data Analysis: • 1. The RFU read is analyzed to calculate percent inhibition by normalizing with positive and negative controls taken as 100% and 0% effect respectively in Microsoft excel. • 2. Graph is generated by putting the analyzed data in GraphPad prism 5.0 software to get IC50 value for each compound.
As for `O=C(Cc1ccccc1)N[C@H](C(=O)N[C@H]1CCc2cccc3c2N(C1=O)[C@H](C(=O)NCc1c[nH]nn1)C3)c1ccccc1` [Compound C020, (2S,5S)-4-Oxo-5-((S)-2-phenyl-2-phenylacetylamino-acetylamino)-1,2,4,5,6,7-hexahydro-azepino[3,2,1-hi]indole-2-carboxylic acid (1H-[1,2,3]triazol-4-ylmethyl)-amide], the pIC50 was below 5.30.
Under `O=C(Cc1ccccc1)N[C@@H](Cc1ccc(O)cc1)C(=O)N[C@H]1CCc2cccc3c2N(C1=O)[C@H](C(=O)NCc1c[nH]nn1)C3` [Compound C021, (2S,5S)-5-[(S)-3-(4-Hydroxy-phenyl)-2-phenylacetylamino-propionylamino]-4-oxo-1,2,4,5,6,7-hexahydro-azepino[3,2,1-hi]indole-2-carboxylic acid (1H-[1,2,3]triazol-4-ylmethyl)-amide] stands 5.30 to 6.00; under `O=C(Cc1ccccc1)N[C@@H](Cc1ccc(F)cc1)C(=O)N[C@H]1CCc2cccc3c2N(C1=O)[C@H](C(=O)NCc1c[nH]nn1)C3` [Compound C022, (2S,5S)-5-[(S)-3-(4-Fluoro-phenyl)-2-phenylacetylamino-propionylamino]-4-oxo-1,2,4,5,6,7-hexahydro-azepino[3,2,1-hi]indole-2-carboxylic acid (1H-[1,2,3]triazol-4-ylmethyl)-amide], below 5.30.
Under `CC(=O)NCC(=O)N[C@H]1CCc2cccc3c2N(C1=O)[C@H](C(=O)NCc1c[nH]nn1)C3` [Compound C023, (2S,5S)-5-(2-Acetylamino-acetylamino)-4-oxo-1,2,4,5,6,7-hexahydro-azepino[3,2,1-hi]indole-2-carboxylic acid (1H-[1,2,3]triazol-4-ylmethyl)-amide] stands below 5.30; under `CC(=O)N[C@@H](C)C(=O)N[C@H]1CCc2cccc3c2N(C1=O)[C@H](C(=O)NCc1c[nH]nn1)C3` [Compound C024, (2S,5S)-5-((S)-2-Acetylamino-propionylamino)-4-oxo-1,2,4,5,6,7-hexahydro-azepino[3,2,1-hi]indole-2-carboxylic acid (1H-[1,2,3]triazol-4-ylmethyl)-amide], below 5.30; under `CC(=O)N[C@@H](Cc1ccccc1)C(=O)N[C@H]1CCc2cccc3c2N(C1=O)[C@H](C(=O)NCc1c[nH]nn1)C3` [Compound C026, (2S,5S)-5-((S)-2-Acetylamino-3-phenyl-propionylamino)-4-oxo-1,2,4,5,6,7-hexahydro-azepino[3,2,1-hi]indole-2-carboxylic acid (1H-[1,2,3]triazol-4-ylmethyl)-amide], 5.30 to 6.00.
Under `CC(=O)N[C@@H](CC(C)C)C(=O)N[C@H]1CCc2cccc3c2N(C1=O)[C@H](C(=O)NCc1c[nH]nn1)C3` [Compound C027, (2S,5S)-5-((S)-2-Acetylamino-4-methyl-pentanoylamino)-4-oxo-1,2,4,5,6,7-hexahydro-azepino[3,2,1-hi]indole-2-carboxylic acid (1H-[1,2,3]triazol-4-ylmethyl)-amide] stands 5.30 to 6.00; under `CC(=O)N[C@@H](CO)C(=O)N[C@H]1CCc2cccc3c2N(C1=O)[C@H](C(=O)NCc1c[nH]nn1)C3` [Compound C029, (2S,5S)-5-((S)-2-Acetylamino-3-hydroxy-propionylamino)-4-oxo-1,2,4,5,6,7-hexahydro-azepino[3,2,1-hi]indole-2-carboxylic acid (1H-[1,2,3]triazol-4-ylmethyl)-amide], below 5.30.
Take `CC(=O)N[C@@H](CCC(=O)O)C(=O)N[C@H]1CCc2cccc3c2N(C1=O)[C@H](C(=O)NCc1c[nH]nn1)C3` [Compound C030, (S)-4-Acetylamino-4-{(2S,5S)-4-oxo-2-[(1H-[1,2,3]triazol-4-ylmethyl)-carbamoyl]-1,2,4,5,6,7-hexahydro-azepino[3,2,1-hi]indol-5-ylcarbamoyl}-butyric acid]: the pIC50 is below 5.30.
The same measure for `CC(=O)N[C@H](C(=O)N[C@H]1CCc2cccc3c2N(C1=O)[C@H](C(=O)NCc1c[nH]nn1)C3)c1ccccc1` [Compound C031, (2S,5S)-5-((S)-2-Acetylamino-2-phenyl-acetylamino)-4-oxo-1,2,4,5,6,7-hexahydro-azepino[3,2,1-hi]indole-2-carboxylic acid (1H-[1,2,3]triazol-4-ylmethyl)-amide]: 5.30 to 6.00; for `CC(=O)N[C@@H](Cc1ccc(O)cc1)C(=O)N[C@H]1CCc2cccc3c2N(C1=O)[C@H](C(=O)NCc1c[nH]nn1)C3` [Compound C032, (2S,5S)-5-[(S)-2-Acetylamino-3-(4-hydroxy-phenyl)-propionylamino]-4-oxo-1,2,4,5,6,7-hexahydro-azepino[3,2,1-hi]indole-2-carboxylic acid(1H-[1,2,3]triazol-4-ylmethyl)amide]: 5.30 to 6.00.
As to `CC(=O)N[C@@H](Cc1ccc(F)cc1)C(=O)N[C@H]1CCc2cccc3c2N(C1=O)[C@H](C(=O)NCc1c[nH]nn1)C3` [Compound C033, (2S,5S)-5-[(S)-2-Acetylamino-3-(4-fluoro-phenyl)-propionylamino]-4-oxo-1,2,4,5,6,7-hexahydro-azepino[3,2,1-hi]indole-2-carboxylic acid (1H-[1,2,3]triazol-4-ylmethyl)-amide], the pIC50 was 5.30 to 6.00.
Under `O=C(CNC(=O)c1ccccc1)N[C@H]1CCc2cccc3c2N(C1=O)[C@H](C(=O)NCc1c[nH]nn1)C3` [Compound C034, (2S,5S)-5-(2-Benzoylamino-acetylamino)-4-oxo-1,2,4,5,6,7-hexahydro-azepino[3,2,1-hi]indole-2-carboxylic acid (1H-[1,2,3]triazol-4-ylmethyl)-amide] stands below 5.30; under `C[C@H](NC(=O)c1ccccc1)C(=O)N[C@H]1CCc2cccc3c2N(C1=O)[C@H](C(=O)NCc1c[nH]nn1)C3` [Compound C035, (2S,5S)-5-((S)-2-Benzoylamino-propionylamino)-4-oxo-1,2,4,5,6,7-hexahydro-azepino[3,2,1-hi]indole-2-carboxylic acid (1H-[1,2,3]triazol-4-ylmethyl)-amide], below 5.30.
The same measure for `O=C(N[C@@H](Cc1ccccc1)C(=O)N[C@H]1CCc2cccc3c2N(C1=O)[C@H](C(=O)NCc1c[nH]nn1)C3)c1ccccc1` [Compound C037]: 5.30 to 6.00; for `CC(C)C[C@H](NC(=O)c1ccccc1)C(=O)N[C@H]1CCc2cccc3c2N(C1=O)[C@H](C(=O)NCc1c[nH]nn1)C3` [Compound C038, (2S,5S)-5-((S)-2-Benzoylamino-4-methyl-pentanoylamino)-4-oxo-1,2,4,5,6,7-hexahydro-azepino[3,2,1-hi]indole-2-carboxylic acid (1H-[1,2,3]triazol-4-ylmethyl)-amide]: 6.00 to 6.52.
The same measure for `O=C(N[C@@H](CO)C(=O)N[C@H]1CCc2cccc3c2N(C1=O)[C@H](C(=O)NCc1c[nH]nn1)C3)c1ccccc1` [Compound C040, (2S,5S)-5-((S)-2-Benzoylamino-3-hydroxy-propionylamino)-4-oxo-1,2,4,5,6,7-hexahydro-azepino[3,2,1-hi]indole-2-carboxylic acid (1H-[1,2,3]triazol-4-ylmethyl)-amide]: below 5.30; for `O=C(O)CC[C@H](NC(=O)c1ccccc1)C(=O)N[C@H]1CCc2cccc3c2N(C1=O)[C@H](C(=O)NCc1c[nH]nn1)C3` [Compound C041, (S)-4-Benzoylamino-4-{(2S,5S)-4-oxo-2-[(1H-[1,2,3]triazol-4-ylmethyl)-carbamoyl]-1,2,4,5,6,7-hexahydro-azepino[3,2,1-hi]indol-5-ylcarbamoyl}-butyric acid]: below 5.30.

The values above are taken from patent publication US11667645B2, “Granzyme B directed imaging and therapy” (CytoSite Biopharma Inc., priority 2018, dated 2023).
